According to ChEMBL document CHEMBL5210121, “Affinity On-target Cellular Literature for EUbOPEN Chemogenomics Library wave 3” (2023):
Each block holds one molecule with its values, some of them ahead of it.

Key:
[1] = molecular target: Serine/threonine-protein kinase PLK1 (Homo sapiens, UniProt P53350); assay: Affinity On-target Cellular interaction (ELISA (PLK1 phosphorylation of Ser15-p53 in HeLa cells)) EUB0000698a PLK1; assay type: cell-based; parameters: mode of action Inhibitor, recommended concentration 100 nM
[2] = molecular target: Lutropin-choriogonadotropic hormone receptor (Homo sapiens, UniProt P22888); assay: Affinity On-target Cellular interaction (Cell-based assay (LH Antagonism)) EUB0000340a LHCGR; parameters: mode of action Negative control for BAY-899, recommended concentration 1 uM
[3] = Affinity On-target Cellular interaction (Binding assay in HEK293 cells) EUB0000337aCl P2RY14
[4] = molecular target: Chromatin remodeling regulator CECR2 (Homo sapiens, UniProt Q9BXF3); assay: Affinity On-target Cellular interaction (NanoBRET assay (dose-dependent displacement from histone H3.3 in HEK293T cells)) EUB0000201c CECR2; assay type: cell-based; parameters: mode of action Inhibitor, recommended concentration 1 uM
[5] = molecular target: T1, Nucleosome-remodeling factor subunit BPTF (Homo sapiens, UniProt Q12830)
[6] = molecular target: G-protein coupled receptor 52 (Homo sapiens, UniProt Q9Y2T5)
[7] = molecular target: Tyrosine-protein kinase JAK3 (Homo sapiens, UniProt P52333); assay: Affinity On-target Cellular interaction (NanoBRET assay (HEK293T cells)) EUB0000007b JAK3; parameters: mode of action Negative control for FM-381, recommended concentration 100 nM
[8] = molecular target: Endothelin receptor type B (Homo sapiens, UniProt P24530); assay: Affinity On-target Cellular interaction (Cellular functional assay (antagonist effect, Eurofins)) EUB0000339a EDNRB; parameters: mode of action Negative control for A-192621, recommended concentration 100 nM
[9] = molecular target: Bromodomain adjacent to zinc finger domain protein 2A (Homo sapiens, UniProt Q9UIF9); assay: Affinity On-target Cellular interaction (Chemoproteomic competition binding assay (endogenous full-length BAZ2A from HuT78 extracts)) EUB0000267b BAZ2A; parameters: mode of action Negative control for GSK2801, recommended concentration 1 uM
[10] = molecular target: Bromodomain adjacent to zinc finger domain protein 2B (Homo sapiens, UniProt Q9UIF8); assay: Affinity On-target Cellular interaction (Chemoproteomic competition binding assay (endogenous full-length BAZ2B captured on the GSK8573 affinity matrix from HuT-78 cell lysate) ) EUB0000267b BAZ2B; parameters: mode of action Negative control for GSK2801, recommended concentration 1 uM
[11] = molecular target: Histone-lysine N-methyltransferase, H3 lysine-79 specific (Homo sapiens, UniProt Q8TEK3); assay: Affinity On-target Cellular interaction (Western Blot (reduction of H3K79 dimethylation in A431 cells by DOT1L)) EUB0000216b DOT1L; assay type: cell-based; parameters: mode of action Inhibitor, recommended concentration 1 uM
[12] = molecular target: T1, Nucleosome-remodeling factor subunit BPTF; assay: Affinity On-target Cellular interaction (NanoBRET assay (HEK293T cells)) EUB0000254b BPTF; parameters: mode of action Negative control for NVS-BPTF-1, recommended concentration 1 uM
[13] = molecular target: T2, Dual specificity protein kinase CLK1 (Homo sapiens, UniProt P49759); assay: Affinity On-target Cellular interaction (NanoBRET assay (HEK293T cells)) EUB0000724a CLK1; parameters: mode of action Inhibitor, recommended concentration 1 uM
[14] = molecular target: Leucine-rich repeat serine/threonine-protein kinase 2 (Homo sapiens, UniProt Q5S007); assay: Affinity On-target Cellular interaction (Cellular assay (LRRK2 phosphorylation)) EUB0000629a LRRK2; parameters: mode of action Inhibitor, recommended concentration 100 nM
[15] = molecular target: CREB-binding protein (Homo sapiens, UniProt Q92793); assay: Affinity On-target Cellular interaction (NanoBRET assay (HEK293T cells)) EUB0000195c CREBBP; parameters: mode of action Inhibitor, recommended concentration 1 uM
[16] = molecular target: P2Y purinoceptor 14 (Homo sapiens) (UniProt Q15391); details: Affinity On-target Cellular Source Knowledge https://pubs.acs.org/doi/10.1021/jm200400m,https://pubs.acs.org/doi/10.1021/ml300280g, https://www.sgc-ffm.uni-frankfurt.de/#!specificprobeoverview/MSD-M1PAM
[17] = molecular target: T2, Dual specificity protein kinase CLK1; assay: Affinity On-target Cellular interaction (NanoBRET assay (HEK293T cells)) EUB0000705a CLK1
[18] = molecular target: Dual specificity protein kinase CLK2 (Homo sapiens, UniProt P49760); assay: Affinity On-target Cellular interaction (NanoBRET assay (HEK293T cells)) EUB0000705a CLK2
[19] = molecular target: Dual specificity protein kinase CLK4 (Homo sapiens, UniProt Q9HAZ1); assay: Affinity On-target Cellular interaction (NanoBRET assay (HEK293T cells)) EUB0000705a CLK4

T2 sequence (P49759 whole entry): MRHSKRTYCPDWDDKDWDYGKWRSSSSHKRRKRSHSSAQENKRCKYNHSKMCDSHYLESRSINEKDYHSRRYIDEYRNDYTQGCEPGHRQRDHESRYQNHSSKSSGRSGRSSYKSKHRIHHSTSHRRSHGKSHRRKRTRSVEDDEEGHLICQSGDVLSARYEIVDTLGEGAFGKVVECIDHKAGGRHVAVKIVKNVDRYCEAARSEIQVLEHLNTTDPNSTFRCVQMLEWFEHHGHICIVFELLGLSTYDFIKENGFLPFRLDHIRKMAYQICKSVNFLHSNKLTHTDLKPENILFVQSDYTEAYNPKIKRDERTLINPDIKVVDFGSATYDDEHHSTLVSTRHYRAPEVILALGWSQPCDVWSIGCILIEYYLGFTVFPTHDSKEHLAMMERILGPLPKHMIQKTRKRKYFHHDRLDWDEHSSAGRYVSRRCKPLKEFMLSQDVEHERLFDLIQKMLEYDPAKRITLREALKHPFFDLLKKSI
Chain of Bromodomain adjacent to zinc finger domain protein 2B (Q9UIF8 whole entry, the tested form may be a part): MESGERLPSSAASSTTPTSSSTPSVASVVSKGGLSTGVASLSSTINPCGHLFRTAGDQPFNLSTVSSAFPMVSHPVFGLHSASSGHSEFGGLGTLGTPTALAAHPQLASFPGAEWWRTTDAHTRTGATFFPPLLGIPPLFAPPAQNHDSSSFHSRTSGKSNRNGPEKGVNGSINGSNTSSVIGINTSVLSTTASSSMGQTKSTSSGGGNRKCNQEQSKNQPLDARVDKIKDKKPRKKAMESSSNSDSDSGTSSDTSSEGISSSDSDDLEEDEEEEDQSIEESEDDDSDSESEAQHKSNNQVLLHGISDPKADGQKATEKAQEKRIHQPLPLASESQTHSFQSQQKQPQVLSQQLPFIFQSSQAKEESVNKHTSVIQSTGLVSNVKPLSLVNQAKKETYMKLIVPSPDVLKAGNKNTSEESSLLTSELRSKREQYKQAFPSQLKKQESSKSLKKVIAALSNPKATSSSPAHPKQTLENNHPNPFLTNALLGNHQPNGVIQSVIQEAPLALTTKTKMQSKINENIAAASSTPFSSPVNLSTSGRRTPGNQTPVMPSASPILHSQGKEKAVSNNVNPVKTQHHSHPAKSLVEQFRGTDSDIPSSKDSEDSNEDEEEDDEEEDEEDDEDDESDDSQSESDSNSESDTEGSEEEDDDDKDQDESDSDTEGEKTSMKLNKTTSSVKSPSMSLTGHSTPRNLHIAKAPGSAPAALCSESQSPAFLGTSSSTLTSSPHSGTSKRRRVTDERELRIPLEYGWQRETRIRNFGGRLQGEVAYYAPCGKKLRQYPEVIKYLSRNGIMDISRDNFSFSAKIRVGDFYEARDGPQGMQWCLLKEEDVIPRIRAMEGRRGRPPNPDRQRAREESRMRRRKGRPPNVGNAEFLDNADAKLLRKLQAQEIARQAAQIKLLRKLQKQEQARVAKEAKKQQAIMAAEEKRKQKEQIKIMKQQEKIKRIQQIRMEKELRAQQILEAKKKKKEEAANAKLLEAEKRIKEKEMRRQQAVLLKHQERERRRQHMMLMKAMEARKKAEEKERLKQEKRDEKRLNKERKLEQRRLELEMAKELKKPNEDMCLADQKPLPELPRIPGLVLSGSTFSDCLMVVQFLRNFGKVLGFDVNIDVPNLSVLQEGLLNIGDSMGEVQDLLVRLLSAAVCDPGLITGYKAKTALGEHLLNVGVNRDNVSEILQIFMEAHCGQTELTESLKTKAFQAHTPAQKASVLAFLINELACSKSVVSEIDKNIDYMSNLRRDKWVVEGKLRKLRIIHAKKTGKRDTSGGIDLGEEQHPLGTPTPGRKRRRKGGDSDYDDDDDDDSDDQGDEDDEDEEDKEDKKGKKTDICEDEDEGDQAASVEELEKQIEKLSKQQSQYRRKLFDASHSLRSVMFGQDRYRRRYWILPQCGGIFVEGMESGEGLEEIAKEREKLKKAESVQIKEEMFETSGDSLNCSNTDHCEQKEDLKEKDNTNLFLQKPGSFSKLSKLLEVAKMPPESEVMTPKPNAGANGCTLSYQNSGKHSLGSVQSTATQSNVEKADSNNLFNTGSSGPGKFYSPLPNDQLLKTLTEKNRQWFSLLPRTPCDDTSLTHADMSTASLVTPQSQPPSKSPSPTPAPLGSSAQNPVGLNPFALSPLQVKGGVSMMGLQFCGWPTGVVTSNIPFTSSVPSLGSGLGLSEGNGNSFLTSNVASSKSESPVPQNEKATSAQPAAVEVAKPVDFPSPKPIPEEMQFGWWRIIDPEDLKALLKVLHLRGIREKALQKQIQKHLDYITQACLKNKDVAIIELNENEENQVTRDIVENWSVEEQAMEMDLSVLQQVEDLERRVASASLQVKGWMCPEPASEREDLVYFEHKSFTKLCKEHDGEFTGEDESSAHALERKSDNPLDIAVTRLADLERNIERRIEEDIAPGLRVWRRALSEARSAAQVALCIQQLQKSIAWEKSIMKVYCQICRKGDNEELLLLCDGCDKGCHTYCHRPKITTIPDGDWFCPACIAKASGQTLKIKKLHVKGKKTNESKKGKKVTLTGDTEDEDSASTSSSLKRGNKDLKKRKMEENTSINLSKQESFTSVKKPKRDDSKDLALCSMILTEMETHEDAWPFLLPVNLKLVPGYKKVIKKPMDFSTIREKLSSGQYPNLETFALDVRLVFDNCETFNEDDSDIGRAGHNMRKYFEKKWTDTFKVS
Chain of Endothelin receptor type B (P24530 whole entry, the tested form may be a part): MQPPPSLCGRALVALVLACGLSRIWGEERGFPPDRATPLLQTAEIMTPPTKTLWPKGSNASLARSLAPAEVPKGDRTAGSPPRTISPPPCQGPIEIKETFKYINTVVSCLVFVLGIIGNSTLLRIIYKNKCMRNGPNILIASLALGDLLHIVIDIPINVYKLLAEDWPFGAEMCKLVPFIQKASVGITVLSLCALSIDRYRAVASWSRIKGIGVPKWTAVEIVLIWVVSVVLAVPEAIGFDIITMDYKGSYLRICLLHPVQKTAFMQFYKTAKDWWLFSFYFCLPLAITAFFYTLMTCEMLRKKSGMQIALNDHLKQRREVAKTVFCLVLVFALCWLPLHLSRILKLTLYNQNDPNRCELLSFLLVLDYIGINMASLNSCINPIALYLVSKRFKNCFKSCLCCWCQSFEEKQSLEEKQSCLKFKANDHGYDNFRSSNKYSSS
Chain of Bromodomain adjacent to zinc finger domain protein 2A (Q9UIF9 whole entry, the tested form may be a part): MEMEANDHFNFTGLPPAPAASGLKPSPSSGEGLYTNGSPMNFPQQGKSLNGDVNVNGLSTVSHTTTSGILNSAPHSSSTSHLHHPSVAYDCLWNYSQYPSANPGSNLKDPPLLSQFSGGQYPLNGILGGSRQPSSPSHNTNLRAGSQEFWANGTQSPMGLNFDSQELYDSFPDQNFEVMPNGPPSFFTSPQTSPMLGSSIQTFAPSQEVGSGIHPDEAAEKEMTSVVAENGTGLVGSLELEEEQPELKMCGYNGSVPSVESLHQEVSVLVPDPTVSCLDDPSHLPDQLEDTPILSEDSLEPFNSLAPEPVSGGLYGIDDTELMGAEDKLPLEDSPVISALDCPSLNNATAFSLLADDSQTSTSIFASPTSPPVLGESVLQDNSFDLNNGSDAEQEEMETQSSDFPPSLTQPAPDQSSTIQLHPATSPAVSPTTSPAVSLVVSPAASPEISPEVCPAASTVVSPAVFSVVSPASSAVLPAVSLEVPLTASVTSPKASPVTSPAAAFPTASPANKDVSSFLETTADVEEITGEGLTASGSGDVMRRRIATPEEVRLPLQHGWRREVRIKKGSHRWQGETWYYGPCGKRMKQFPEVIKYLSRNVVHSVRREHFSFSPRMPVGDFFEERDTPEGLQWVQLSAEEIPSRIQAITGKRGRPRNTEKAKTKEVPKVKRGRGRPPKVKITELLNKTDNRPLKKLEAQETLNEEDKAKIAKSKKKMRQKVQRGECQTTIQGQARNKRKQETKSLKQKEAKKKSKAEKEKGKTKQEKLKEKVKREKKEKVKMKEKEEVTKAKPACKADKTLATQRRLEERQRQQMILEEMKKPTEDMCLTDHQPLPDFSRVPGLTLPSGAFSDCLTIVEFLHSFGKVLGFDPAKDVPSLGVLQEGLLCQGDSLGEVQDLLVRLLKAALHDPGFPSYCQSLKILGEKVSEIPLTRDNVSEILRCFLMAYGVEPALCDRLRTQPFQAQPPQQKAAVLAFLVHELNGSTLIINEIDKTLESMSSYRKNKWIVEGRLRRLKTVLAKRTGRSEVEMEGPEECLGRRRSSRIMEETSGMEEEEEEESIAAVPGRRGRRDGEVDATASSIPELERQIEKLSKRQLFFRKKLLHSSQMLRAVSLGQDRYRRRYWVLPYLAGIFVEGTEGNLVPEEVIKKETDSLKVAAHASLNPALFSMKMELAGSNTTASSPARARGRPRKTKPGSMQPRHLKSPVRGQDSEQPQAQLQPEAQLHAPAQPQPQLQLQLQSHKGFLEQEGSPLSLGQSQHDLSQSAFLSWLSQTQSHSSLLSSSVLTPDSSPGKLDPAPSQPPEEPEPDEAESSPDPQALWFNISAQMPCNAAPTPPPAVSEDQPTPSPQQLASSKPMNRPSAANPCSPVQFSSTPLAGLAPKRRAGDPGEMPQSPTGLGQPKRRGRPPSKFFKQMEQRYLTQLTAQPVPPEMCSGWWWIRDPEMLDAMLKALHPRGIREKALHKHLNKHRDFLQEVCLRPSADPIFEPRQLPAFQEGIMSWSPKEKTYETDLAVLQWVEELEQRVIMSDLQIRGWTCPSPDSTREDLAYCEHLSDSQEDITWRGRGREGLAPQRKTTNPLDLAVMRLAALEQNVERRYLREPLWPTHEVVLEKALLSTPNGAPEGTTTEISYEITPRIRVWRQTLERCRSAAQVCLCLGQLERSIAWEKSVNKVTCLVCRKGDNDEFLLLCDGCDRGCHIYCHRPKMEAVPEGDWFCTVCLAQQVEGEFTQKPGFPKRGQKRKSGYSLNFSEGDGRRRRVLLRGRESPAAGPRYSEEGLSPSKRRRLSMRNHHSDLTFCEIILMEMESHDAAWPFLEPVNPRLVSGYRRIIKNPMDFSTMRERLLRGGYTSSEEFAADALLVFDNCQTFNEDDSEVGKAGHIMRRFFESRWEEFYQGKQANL

SMILES: COc1cc2ncn(-c3cc(OCc4ccccc4C(F)(F)F)c(C(N)=O)s3)c2cc1OC [GW843682X]
IC50 [1]: 140 nM

SMILES: CCCS(=O)(=O)c1nc(NC2CC2)cc(-c2ccc3c(ccn3C3CC(C)(C)NC(C)(C)C3)c2)n1
IC50 [4]: 255 nM

SMILES: Cc1c(Nc2ccc(S(=O)(=O)N3CCN(C)CC3)cc2F)nc2ccc(-c3cnn(C4CC4)c3)cn2c1=O
IC50 [5]: 16 nM

SMILES: CN(C)C(=O)/C(C#N)=C/c1ccc(-c2nc3cnc4c(ccn4C)c3n2C2CCCCC2)o1
IC50 [7]: > 10000 nM

SMILES: CCCOc1ccc([C@@H]2[C@@H](C(=O)O)[C@H](c3ccc4c(c3)OCO4)CN2CC(=O)Nc2c(CC)cccc2CC)cc1 [A-1806262]
IC50 [8]: > 10000 nM

SMILES: CCCOc1ccn2c(C(C)=O)cc(-c3cccc(OC)c3)c2c1
Kd [9]: > 10000 nM
Kd [10]: > 10000 nM

SMILES: CC(C)N(CCCNC(=O)Nc1ccc(C(C)(C)C)cc1)C[C@H]1O[C@@H](n2cc(Br)c3c(N)ncnc32)[C@H](O)[C@@H]1O
IC50 [11]: 2.6 nM

SMILES: Cc1c(Nc2ccc(S(=O)(=O)N3CCN(C)CC3)cc2F)nc2ccc(Nc3cnn(C4CC4)c3)cn2c1=O
IC50 [12]: > 10000 nM

SMILES: CNc1nc(Nc2cnn([C@H]3CCN(C4COC4)C[C@@H]3F)c2Cl)ncc1C(F)(F)F
IC50 [14]: 19 nM

SMILES: CCC(=O)N1CCOc2c(cc(-c3ccc(OC)c(OC)c3)cc2OC[C@H]2CCCN(C)C2)C1
IC50 [15]: 600 nM

Continued, values first:

IC50 [2]: > 16000 nM
SMILES: O=C(Nc1ccc(Oc2ccc(F)cc2)cc1)N1CCc2ncccc2[C@H]1c1ccc(F)cc1 [BAY-897]

Ki [3]: 8610 nM
SMILES: Cc1c(C(=O)O)cc(-c2ccc(C3CCNCC3)cc2)c2ccc(-c3ccc(C(F)(F)F)cc3)cc12

EC50 [6]: > 1000 nM
SMILES: Cc1nc(Cc2cccc(C(F)(F)F)c2)sc1-c1ccc(C(N)=O)nc1 [TP-024n]

IC50 [13]: 165 nM
SMILES: COc1cc(Nc2nccc(-c3cnn4nc(OC)ccc34)n2)cc(C(F)(F)F)c1

Potentiation inflection point [16]: > 10 µM
SMILES: O=C(O)c1cc(-c2ccc(C3CCNCC3)cc2)c2ccc(-c3ccc(C(F)(F)F)cc3)cc2c1

IC50 [17]: > 10000 nM
IC50 [18]: > 10000 nM
IC50 [19]: > 10000 nM
SMILES: CN1CCN(C(=O)C(C)(C)c2ccc(C(=O)Nc3cn4cc(-c5cc(C(C)(C)C)cc(C(C)(C)C)c5)ccc4n3)cc2)CC1 [T3-CLK-N]
